# Test results reported in ChEMBL document CHEMBL3217476, “Binding region and interaction properties of sulfoquinovosylacylglycerol (SQAG) with human vascular endothelial growth factor 165 revealed by biosensor-based assays” (Medchemcomm, 2011).
# Active and inactive are the calls of the source. The calls are words filed in the database; no cut-off is given here.
# Tests used:
# [1] = biological target: T1, Vascular endothelial growth factor A, long form (Homo sapiens, UniProt P15692); test: Binding affinity to His-tagged human recombinant full length VEGF165 (amino acid residues A1 to R165) expressed in Escherichia coli BL21 (DE3) cells by surface plasmon resonance assay
# T1 sequence (P15692 whole entry): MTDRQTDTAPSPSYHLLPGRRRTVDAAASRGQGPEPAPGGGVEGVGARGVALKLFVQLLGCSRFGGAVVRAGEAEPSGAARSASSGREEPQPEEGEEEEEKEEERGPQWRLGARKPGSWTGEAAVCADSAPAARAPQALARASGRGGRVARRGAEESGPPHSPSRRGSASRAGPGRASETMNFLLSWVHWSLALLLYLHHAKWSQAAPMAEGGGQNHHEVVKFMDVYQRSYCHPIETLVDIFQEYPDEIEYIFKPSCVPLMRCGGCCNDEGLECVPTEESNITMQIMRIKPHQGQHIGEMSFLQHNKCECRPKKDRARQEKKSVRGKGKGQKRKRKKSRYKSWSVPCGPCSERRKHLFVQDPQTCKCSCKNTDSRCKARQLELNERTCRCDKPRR
# [2] = test system: Vascular endothelial growth factor A, long form (Homo sapiens), P15692 [UNDEFINED MUTATION]; test: Binding affinity to His-tagged human recombinant truncated del1 VEGF165 (amino acid residues A1 to R110) expressed in Escherichia coli BL21 (DE3) cells at 0.125 to 2 uM by surface plasmon resonance assay
# [3] = biological target: Vascular endothelial growth factor A, long form (Homo sapiens, UniProt P15692, EX2DEL); test: Binding affinity to His-tagged human recombinant truncated del2 VEGF165 (amino acid residues A111 to R165) expressed in Escherichia coli BL21 (DE3) cells by surface plasmon resonance assay
# [4] = test system: Vascular endothelial growth factor A, long form (Homo sapiens), P15692 [UNDEFINED MUTATION]; test: Binding affinity to His-tagged human recombinant truncated del3 VEGF165 (amino acid residues A111 to T142) expressed in Escherichia coli BL21 (DE3) cells at 0.125 to 2 uM by surface plasmon resonance assay
# [5] = biological target: Vascular endothelial growth factor A, long form (Homo sapiens, UniProt P15692, EX4DEL); test: Binding affinity to His-tagged human recombinant truncated del4 VEGF165 (amino acid residues C137 to R165) expressed in Escherichia coli BL21 (DE3) cells by surface plasmon resonance assay
# [6] = biological target: T2, Vascular endothelial growth factor A, long form (Homo sapiens) (UniProt P15692); test: Inhibition of human VEGF165 heparin binding domain (amino acid residues A111 to R165) expressed in T7 phage/NRP1 interaction assessed as rescued phage titer ratio of del2 T7 phage particles at 1 uM preincubated with del2 T7 phage particles by QCM sensorgram analysis
# T2 sequence (whole entry): T1 sequence (P15692 whole entry)
# [7] = biological target: T2, Vascular endothelial growth factor A, long form (Homo sapiens); test: Binding affinity to human VEGF121 (amino acid residues A1 to R121) at 0.125 to 2 uM by surface plasmon resonance assay
# [8] = biological target: Vascular endothelial growth factor receptor 1 (Homo sapiens) (UniProt P17948); test: Binding affinity to human VEGFR1 (amino acid residues S27 to I328) at 0.125 to 2 uM by surface plasmon resonance assay
# [9] = biological target: Vascular endothelial growth factor receptor 2 (Homo sapiens) (UniProt P35968); test: Binding affinity to human VEGFR2 (amino acid residues A20 to E764) at 0.125 to 2 uM by surface plasmon resonance assay
# [10] = biological target: Neuropilin-1 (Homo sapiens) (UniProt O14786); test: Binding affinity to human NRP1 (amino acid residues M1 to K644) at 0.125 to 2 uM by surface plasmon resonance assay
# [11] = biological target: Transforming growth factor beta-2 proprotein (Homo sapiens) (UniProt P61812); test: Binding affinity to human TGFbeta2 (amino acid residues A1 to S112) at 0.125 to 2 uM by surface plasmon resonance assay
# [12] = biological target: TGF-beta receptor type-2 (Homo sapiens) (UniProt P37173); test: Binding affinity to human TGFbetaR2 (amino acid residues M1 to D159) at 0.125 to 2 uM by surface plasmon resonance assay
# [13] = biological target: Insulin-like growth factor 1 (Homo sapiens) (UniProt P05019); test: Binding affinity to human IGF-1 (amino acid residues G49 to A118) at 0.125 to 2 uM by surface plasmon resonance assay
# [14] = biological target: Insulin-like growth factor 1 receptor (Homo sapiens) (UniProt P08069); test: Binding affinity to human IGF-1 receptor (amino acid residues E31 to N932) at 0.125 to 2 uM by surface plasmon resonance assay
# [15] = biological target: Fibroblast growth factor 1 (Homo sapiens) (UniProt P05230); test: Binding affinity to human FGF1 (amino acid residues M1 to D141) at 0.125 to 2 uM by surface plasmon resonance assay
# [16] = biological target: Fibroblast growth factor 2 (Homo sapiens) (UniProt P09038); test: Binding affinity to human FGF2 (amino acid residues A1 to S154) at 0.125 to 2 uM by surface plasmon resonance assay
# Homo sapiens [17] = organism: Homo sapiens; test: Binding affinity to human FGFR2 alpha (amino acid residues R22 to E378) at 0.125 to 2 uM by surface plasmon resonance assay
# [18] = biological target: Angiopoietin-1 (Homo sapiens) (UniProt Q15389); test: Binding affinity to human Ang-1 (amino acid residues N21 to F496) at 0.125 to 2 uM by surface plasmon resonance assay
# [19] = biological target: Angiopoietin-1 receptor (Homo sapiens) (UniProt Q02763); test: Binding affinity to human Tie-2 (amino acid residues A23 to K745) at 0.125 to 2 uM by surface plasmon resonance assay
# [20] = biological target: Ephrin type-B receptor 2 (Homo sapiens) (UniProt P29323); test: Binding affinity to human EphB2 (amino acid residues V27 to K458) at 0.125 to 2 uM by surface plasmon resonance assay
# [21] = biological target: Ephrin type-B receptor 4 (Homo sapiens) (UniProt P54760); test: Binding affinity to human EphB4 (amino acid residues L16 to A539) at 0.125 to 2 uM by surface plasmon resonance assay
# [22] = biological target: Pro-epidermal growth factor (Homo sapiens) (UniProt P01133); test: Binding affinity to human EGF (amino acid residues N1 to R53) at 0.125 to 2 uM by surface plasmon resonance assay
# [23] = biological target: Epidermal growth factor receptor (Homo sapiens) (UniProt P00533); test: Binding affinity to human EGFR (amino acid residues L25 to S645) at 0.125 to 2 uM by surface plasmon resonance assay
# Homo sapiens [24] = organism: Homo sapiens; test: Binding affinity to human PDGF-BB (amino acid residues S1 to T110) at 0.125 to 2 uM by surface plasmon resonance assay
# [25] = biological target: Platelet-derived growth factor receptor beta (Mus musculus) (UniProt P05622); test: Binding affinity to GST-fused mouse PDGFRB (amino acid residues L33 to E133) at 0.125 to 2 uM by surface plasmon resonance assay
# [26] = biological target: Bone morphogenetic protein 2 (Homo sapiens) (UniProt P12643); test: Binding affinity to human BMP-2 (amino acid residues M1 to R115) at 0.125 to 2 uM by surface plasmon resonance assay
# [27] = biological target: Bone morphogenetic protein receptor type-2 (Homo sapiens) (UniProt Q13873); test: Binding affinity to human BMPR2 (amino acid residues A26 to I151) at 0.125 to 2 uM by surface plasmon resonance assay
# Homo sapiens [28] = organism: Homo sapiens; test: Binding affinity to human sDLL-4 (amino acid residues S1 to P498) at 0.125 to 2 uM by surface plasmon resonance assay
# [29] = biological target: Protein jagged-1 (Homo sapiens) (UniProt P78504); test: Binding affinity to human Jagged-1 (amino acid residues S32 to S1046) at 0.125 to 2 uM by surface plasmon resonance assay
# [30] = biological target: Neurogenic locus notch homolog protein 1 (Homo sapiens) (UniProt P46531); test: Binding affinity to human Notch-1 (amino acid residues A19 to Q526) at 0.125 to 2 uM by surface plasmon resonance assay
# [31] = biological target: T2, Vascular endothelial growth factor A, long form (Homo sapiens); test: Binding affinity to human VEGF165 heparin binding domain (amino acid residues A111 to R165) expressed in T7 phage assessed as increase in emergence ratio of del2 T7 phage particles from host Escherichia coli BLT5615 cells by QCM sensorgram analysis; format: cell-based
# [32] = biological target: T2, Vascular endothelial growth factor A, long form (Homo sapiens); test: Binding affinity to human VEGF165 C-terminal fragment of heparin binding domain (amino acid residues C137 to R165) expressed in T7 phage assessed as increase in emergence ratio of del4 T7 phage particles from host Escherichia coli BLT5615 cells by QCM sensorgram analysis; format: cell-based
# [33] = biological target: DNA polymerase lambda (Homo sapiens) (UniProt Q9UGP5); test: Binding affinity to human DNA polymerase lambda (amino acid residues M1 to R95) by surface plasmon resonance assay
# [34] = biological target: T2, Vascular endothelial growth factor A, long form (Homo sapiens); test: Inhibition of human VEGF165 heparin binding domain (amino acid residues A111 to R165) expressed in T7 phage/NRP1 interaction assessed as rescued phage titer ratio of del2 T7 phage particles at 10 uM preincubated with del2 T7 phage particles by QCM sensorgram analysis
# [35] = biological target: T2, Vascular endothelial growth factor A, long form (Homo sapiens); test: Binding affinity to His-tagged human recombinant full length VEGF165 (amino acid residues A1 to R165) expressed in Escherichia coli BL21 (DE3) cells at 0.125 to 2 uM by surface plasmon resonance assay
# [36] = biological target: T2, Vascular endothelial growth factor A, long form (Homo sapiens); test: Binding affinity to His-tagged human recombinant full length VEGF165 (amino acid residues A1 to R165) expressed in Escherichia coli BL21 (DE3) cells at 1.25 to 20 uM by surface plasmon resonance assay
smiles,measurement,setting,value
CCCCCCCCCCCCCCCCCC(=O)OCC(O)CO[C@@H]1O[C@H](CS(=O)(=O)O)[C@@H](O)[C@H](O)[C@H]1O (stereo not given in full),Kd,[1],16000 nM
CCCCCCCCCCCCCCCCCC(=O)OCC(CO[C@@H]1O[C@H](CS(=O)(=O)O)[C@@H](O)[C@H](O)[C@H]1O)OC(=O)CCCCCCCCCCCCCCCCC (stereo not given in full),Activity,[2],inactive
same,Kd,[3],0.025 nM
same,Activity,[4],inactive
same,Kd,[5],1400 nM
same,inhibition,[6],Active
same,Kd,[1],0.046 nM
same,Activity,[7],inactive
same,Activity,[8],inactive
same,Activity,[9],inactive
same,Activity,[10],inactive
same,Activity,[11],inactive
same,Activity,[12],inactive
same,Activity,[13],inactive
same,Activity,[14],inactive
same,Activity,[15],inactive
same,Activity,[16],inactive
same,Activity,Homo sapiens [17],inactive
same,Activity,[18],inactive
same,Activity,[19],inactive
same,Activity,[20],inactive
same,Activity,[21],inactive
same,Activity,[22],inactive
same,Activity,[23],inactive
same,Activity,Homo sapiens [24],inactive
same,Activity,[25],inactive
same,Activity,[26],inactive
same,Activity,[27],inactive
same,Activity,Homo sapiens [28],inactive
same,Activity,[29],inactive
same,Activity,[30],inactive
same,Activity,[31],Active
same,Activity,[32],Active
same,Kd,[33],9.9 nM
CCCCCCCCCCCCCCCCCC(=O)OCC(O)CO[C@H]1O[C@H](CS(=O)(=O)O)[C@@H](O)[C@H](O)[C@H]1O (stereo not given in full),inhibition,[34],Active
same,Kd,[1],18000 nM
CCCCCCCCCCCCCCCCCC(=O)OCC(CO[C@H]1O[C@H](CS(=O)(=O)O)[C@@H](O)[C@H](O)[C@H]1O)OC(=O)CCCCCCCCCCCCCCCCC (stereo not given in full),Kd,[1],0.025 nM
CCCCCCCCCCCCCCCCCC(=O)OCC(CO[C@@H]1O[C@H](CO)[C@@H](O)[C@H](O)[C@H]1O)OC(=O)CCCCCCCCCCCCCCCCC (stereo not given in full),Activity,[35],inactive
O=S(=O)(O)C[C@H]1O[C@@H](OCC(O)CO)[C@H](O)[C@@H](O)[C@@H]1O (stereo not given in full),Activity,[35],inactive
CCCCCCCCCC(=O)OCC(O)CO[C@H]1O[C@H](CS(=O)(=O)O)[C@@H](O)[C@H](O)[C@H]1O (stereo not given in full),Activity,[36],inactive
